What all share (assay): relative viability (nuclei count vs DMSO), 5 days (fraction); higher = more cells survive
Compound in the test “Irinotecan + Vorinostat”: CCc1c2c(nc3ccc(OC(=O)N4CCC(N5CCCCC5)CC4)cc13)-c1cc3c(c(=O)n1C2)COC(=O)[C@]3(O)CC [Irinotecan] + O=C(CCCCCCC(=O)Nc1ccccc1)NO [Vorinostat] (partner 1 µM)
The method, boiled down:
(§1)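 Cells from lung cancer lines were seeded into 1536-well plates and, one day later, dosed by pin tool. Treatments were either a single drug or a fixed dose of an anchor drug with five library-drug doses (not always all listed) in √10 steps. After 5 days, nuclei were stained in a one-step fixation (final 0.05% Triton X-100, 1% formaldehyde, 1 ug/ml Hoechst) and counted on 4× images, and relative viability is the treated-to-vehicle nuclei ratio, as the median of duplicate plates.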

Compound in the test “RU-SKI 43 + Navitoclax”: CC[C@@H](C)CNCC(=O)N1CCC2=C([C@@H]1COC3=CC=CC(=C3)C)C=CS2 [RU-SKI 43] + CC1(C)CCC(c2ccc(Cl)cc2)=C(CN2CCN(c3ccc(C(=O)NS(=O)(=O)c4ccc(N[C@H](CCN5CCOCC5)CSc5ccccc5)c(S(=O)(=O)C(F)(F)F)c4)cc3)CC2)C1 [Navitoclax] (partner 0.5 µM)
The method in brief: as §1

Compound in the test “RU-SKI 43 + Lapatinib”: CC[C@@H](C)CNCC(=O)N1CCC2=C([C@@H]1COC3=CC=CC(=C3)C)C=CS2 [RU-SKI 43] + CS(=O)(=O)CCNCc1ccc(-c2ccc3ncnc(Nc4ccc(OCc5cccc(F)c5)c(Cl)c4)c3c2)o1 [Lapatinib] (partner 2 µM)
The method, boiled down:
as §1

Compound in the test “MK-8033 + Dasatinib”: Cn1cc(-c2cnc3ccc4ccc(CS(=O)(=O)NCc5ccccn5)cc4c(=O)c3c2)cn1 [MK-8033] + Cc1nc(Nc2ncc(C(=O)Nc3c(C)cccc3Cl)s2)cc(N2CCN(CCO)CC2)n1 [Dasatinib] (partner 0.075 µM)
The method, boiled down: as §1

In the case of PC-14, the relative viability came to 0.477 with Irinotecan + Vorinostat (first compound 0.6325 µM); 0.392 with Irinotecan + Vorinostat (first compound 2 µM); 0.217 with Irinotecan + Vorinostat (first compound 6.325 µM); 0.102 in the test with Irinotecan + Vorinostat (first compound 20 µM); 0.962 with RU-SKI 43 + Navitoclax (first compound 0.1 µM); 1.3 with RU-SKI 43 + Navitoclax (first compound 0.3162 µM). Also, the relative viability with RU-SKI 43 + Navitoclax (first compound 1 µM) worked out at 1.08; with RU-SKI 43 + Navitoclax (first compound 3.162 µM), 0.985; in the test with RU-SKI 43 + Navitoclax (first compound 10 µM), 0.957; with RU-SKI 43 + Lapatinib (first compound 0.1 µM), 0.362; with RU-SKI 43 + Lapatinib (first compound 0.3162 µM) it was 0.362; with RU-SKI 43 + Lapatinib (first compound 1 µM) it was 0.414. The relative viability was 0.335 in the test with RU-SKI 43 + Lapatinib (first compound 3.162 µM); 0.239 with RU-SKI 43 + Lapatinib (first compound 10 µM); 0.254 with MK-8033 + Dasatinib (first compound 0.02 µM); 0.181 with MK-8033 + Dasatinib (first compound 0.06325 µM); 0.246 with MK-8033 + Dasatinib (first compound 0.2 µM); 0.232 in the test with MK-8033 + Dasatinib (first compound 0.6325 µM). Further, in the test with MK-8033 + Dasatinib (first compound 2 µM), the relative viability turned out to be 0.245.

Consider RERF-LC-KJ, for which the relative viability with Irinotecan + Vorinostat (first compound 0.6325 µM) was found to be 0.462; in the test with Irinotecan + Vorinostat (first compound 2 µM), 0.586; with Irinotecan + Vorinostat (first compound 6.325 µM) it was 0.48; with Irinotecan + Vorinostat (first compound 20 µM), 0.271; with RU-SKI 43 + Navitoclax (first compound 0.1 µM), 1.07; with RU-SKI 43 + Navitoclax (first compound 0.3162 µM) it was 1.29. Also, the relative viability with RU-SKI 43 + Navitoclax (first compound 1 µM) stood at 1.09; in the test with RU-SKI 43 + Navitoclax (first compound 3.162 µM) it was 1.21; in the test with RU-SKI 43 + Navitoclax (first compound 10 µM) it was 0.9; with RU-SKI 43 + Lapatinib (first compound 0.1 µM), 0.872; in the test with RU-SKI 43 + Lapatinib (first compound 0.3162 µM) it was 0.892; in the test with RU-SKI 43 + Lapatinib (first compound 1 µM) it was 0.853. The relative viability in the test with RU-SKI 43 + Lapatinib (first compound 3.162 µM) stood at 0.959; in the test with RU-SKI 43 + Lapatinib (first compound 10 µM), 0.825; with MK-8033 + Dasatinib (first compound 0.02 µM), 0.648; in the test with MK-8033 + Dasatinib (first compound 0.06325 µM), 0.742; with MK-8033 + Dasatinib (first compound 0.2 µM), 0.752; with MK-8033 + Dasatinib (first compound 0.6325 µM), 0.631. The relative viability with MK-8033 + Dasatinib (first compound 2 µM) was 0.746.

As to SK-LU-1, the relative viability with Irinotecan + Vorinostat (first compound 0.6325 µM) came to 0.435; with Irinotecan + Vorinostat (first compound 2 µM) it was 0.431; in the test with Irinotecan + Vorinostat (first compound 6.325 µM), 0.45; in the test with Irinotecan + Vorinostat (first compound 20 µM), 0.313; with RU-SKI 43 + Navitoclax (first compound 0.1 µM), 0.789; with RU-SKI 43 + Navitoclax (first compound 0.3162 µM), 0.817. In addition, the relative viability amounted to 0.841 with RU-SKI 43 + Navitoclax (first compound 1 µM); 0.831 in the test with RU-SKI 43 + Navitoclax (first compound 3.162 µM); 1.03 with RU-SKI 43 + Navitoclax (first compound 10 µM); 0.849 with RU-SKI 43 + Lapatinib (first compound 0.1 µM); 1.02 with RU-SKI 43 + Lapatinib (first compound 0.3162 µM); 0.931 with RU-SKI 43 + Lapatinib (first compound 1 µM). The relative viability in the test with RU-SKI 43 + Lapatinib (first compound 3.162 µM) is 0.834; with RU-SKI 43 + Lapatinib (first compound 10 µM), 0.929; with MK-8033 + Dasatinib (first compound 0.02 µM), 0.153; in the test with MK-8033 + Dasatinib (first compound 0.06325 µM) it was 0.224; with MK-8033 + Dasatinib (first compound 0.2 µM) it was 0.182; in the test with MK-8033 + Dasatinib (first compound 0.6325 µM), 0.185. In addition, the relative viability with MK-8033 + Dasatinib (first compound 2 µM) turned out to be 0.191.

As to SK-MES-1, the relative viability with Irinotecan + Vorinostat (first compound 0.6325 µM) stood at 0.821; in the test with Irinotecan + Vorinostat (first compound 2 µM) it was 0.756; in the test with Irinotecan + Vorinostat (first compound 6.325 µM), 0.372; in the test with Irinotecan + Vorinostat (first compound 20 µM), 0.193; with RU-SKI 43 + Navitoclax (first compound 0.1 µM) it was 1.31; with RU-SKI 43 + Navitoclax (first compound 0.3162 µM), 1.55. In addition, the relative viability is 1.33 in the test with RU-SKI 43 + Navitoclax (first compound 1 µM); 1.25 with RU-SKI 43 + Navitoclax (first compound 3.162 µM); 1.12 with RU-SKI 43 + Navitoclax (first compound 10 µM); 0.471 in the test with RU-SKI 43 + Lapatinib (first compound 0.1 µM); 0.49 with RU-SKI 43 + Lapatinib (first compound 0.3162 µM); 0.519 in the test with RU-SKI 43 + Lapatinib (first compound 1 µM). In addition, the relative viability with RU-SKI 43 + Lapatinib (first compound 3.162 µM) is 0.51; with RU-SKI 43 + Lapatinib (first compound 10 µM), 0.422; with MK-8033 + Dasatinib (first compound 0.02 µM) it was 0.347; with MK-8033 + Dasatinib (first compound 0.06325 µM) it was 0.337; with MK-8033 + Dasatinib (first compound 0.2 µM), 0.427; with MK-8033 + Dasatinib (first compound 0.6325 µM), 0.365. Moreover, in the test with MK-8033 + Dasatinib (first compound 2 µM), the relative viability came to 0.411.

SW 1573: the relative viability worked out at 0.605 with Irinotecan + Vorinostat (first compound 2 µM); 0.209 with Irinotecan + Vorinostat (first compound 6.325 µM); 0.0706 with Irinotecan + Vorinostat (first compound 20 µM); 0.993 with RU-SKI 43 + Navitoclax (first compound 0.1 µM); 0.93 with RU-SKI 43 + Navitoclax (first compound 0.3162 µM); 0.898 with RU-SKI 43 + Navitoclax (first compound 1 µM). Moreover, the relative viability turned out to be 1.03 with RU-SKI 43 + Navitoclax (first compound 3.162 µM); 0.721 with RU-SKI 43 + Navitoclax (first compound 10 µM); 1.27 with RU-SKI 43 + Lapatinib (first compound 0.1 µM); 1.11 with RU-SKI 43 + Lapatinib (first compound 0.3162 µM); 1.07 with RU-SKI 43 + Lapatinib (first compound 1 µM); 1.11 in the test with RU-SKI 43 + Lapatinib (first compound 3.162 µM). The relative viability in the test with RU-SKI 43 + Lapatinib (first compound 10 µM) was determined as 1.16; with MK-8033 + Dasatinib (first compound 0.02 µM), 0.444; in the test with MK-8033 + Dasatinib (first compound 0.06325 µM), 0.508; in the test with MK-8033 + Dasatinib (first compound 0.2 µM) it was 0.502; with MK-8033 + Dasatinib (first compound 0.6325 µM) it was 0.424; with MK-8033 + Dasatinib (first compound 2 µM), 0.466.

Source of the values: the supplement of paper PMC10307832.
